In patent US20060069132A1, “Azolecarboxamide herbicides” (priority 2004, published 2006):

Assays:
barnyardgrass [1] = experiment: Test B flooded paddy test; type: in vivo, Echinochloa crus-galli; conditions: 1000 g ai/ha, visual rating, scale 0 to 100 (0 no effect, 100 complete control), 13 to 15 days
Procedure, shortened: (§1)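 Paddy species grown to the 2-leaf stage under flooding; blackgrass sprayed postemergence at 2–18 cm (1- to 4-leaf stage). Plants kept in a greenhouse for 13 to 15 days, then visually rated against controls on 0 (no effect) to 100 (complete control).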

Surinam grass = experiment: Test B pre-/postemergence herbicide test; type: in vivo, Urochloa decumbens
Procedure, shortened: (§2)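 Herbicidal effect was judged by eye on a 0–100 scale after plants stood 13 to 15 days in the greenhouse following pre- or postemergence treatment with surfactant-containing formulations.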

wild oat = experiment: Test B postemergence herbicide test; type: in vivo, Avena fatua; conditions: scale 0 (no effect) to 100 (complete control); for Oat, Wild plant response rating: 125 g ai/ha; for Plant response rating, Oat, Wild: 500 g ai/ha, visual rating after 13 to 15 days
Procedure, shortened: (§3)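 Read-out: visual comparison with controls, scored 0 to 100, where 100 means complete control and 0 no effect. Formulated chemicals were applied postemergence to plants 2–18 cm tall (1- to 4-leaf), or to flooded-paddy plants at the 2-leaf stage, then held 13 to 15 days under glass.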

lambsquarters = experiment: Test B pre-/postemergence herbicide test; type: in vivo, Chenopodium album
Procedure, shortened: as §2

large crabgrass [2] = experiment: Test B pre-/postemergence herbicide test; type: in vivo, Digitaria sanguinalis
Procedure, shortened: as §2

rice = experiment: Test B flooded paddy test; type: in vivo, Oryza sativa; conditions: 1000 g ai/ha, visual rating, scale 0 to 100 (0 no effect, 100 complete control), 13 to 15 days
Procedure, shortened: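 Treated at 2-leaf (paddy) or 1–4-leaf, 2–18 cm (postemergence); greenhouse 13–15 d; visual score vs control, 0 none to 100 complete control; dash = not tested.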

giant foxtail [3] = experiment: Test B pre-/postemergence herbicide test; type: in vivo, Setaria faberi
Procedure, shortened: as §2

morningglory [4] = experiment: Test B pre-/postemergence herbicide test; type: in vivo, Ipomoea coccinea
Procedure, shortened: (§4)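 Test chemicals in a non-phytotoxic solvent mixture with surfactant were applied preemergence to seeded species and postemergence to plants 2-18 cm tall (1- to 4-leaf stage); rice and barnyardgrass were also tested in a flooded paddy at the 2-leaf stage. Visual rating versus controls after 13-15 days in greenhouse, scale 0 (no effect) to 100 (complete control).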

blackgrass = experiment: Test B postemergence herbicide test; type: in vivo, Alopecurus myosuroides; conditions: scale 0 (no effect) to 100 (complete control); for Blackgrass plant response rating: 125 g ai/ha; for Plant response rating, Blackgrass: 500 g ai/ha, visual rating after 13 to 15 days
Procedure, shortened: as §1

corn = experiment: Test B pre-/postemergence herbicide test; type: in vivo, Zea mays; conditions: for Corn plant response rating: Preemergence, 500 g ai/ha, scale 0 to 100
Procedure, shortened: as §2

pigweed = experiment: Test B pre-/postemergence herbicide test; type: in vivo, Amaranthus retroflexus
Procedure, shortened: as §2

[5] = system: small flower umbrella sedge; experiment: Test B flooded paddy test; type: in vivo, Cyperus difformis; conditions: 1000 g ai/ha, visual rating, scale 0 to 100 (0 no effect, 100 complete control), 13 to 15 days
Procedure, shortened: as §1

redroot pigweed = experiment: Test A pre-/postemergence herbicide test; type: in vivo, Amaranthus retroflexus; conditions: for Plant response rating, Pigweed: Postemergence; for Pigweed plant response rating: Preemergence
Procedure, shortened: (§5)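 Sandy loam soil given preemergence directed spray; plants at 2 to 10 cm, one- to two-leaf stage, sprayed to runoff postemergence, compounds in non-phytotoxic solvent with surfactant. Injury rated visually versus untreated controls after about ten greenhouse days, 0 (no effect) to 100 (complete control); dash means not tested.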

cocklebur = experiment: Test B pre-/postemergence herbicide test; type: in vivo, Xanthium strumarium
Procedure, shortened: as §4

barnyardgrass [6] = experiment: Test A pre-/postemergence herbicide test; type: in vivo, Echinochloa crus-galli; conditions: for Plant response rating, Barnyardgrass: Postemergence; for Barnyardgrass plant response rating: Preemergence
Procedure, shortened: as §5

large crabgrass [7] = experiment: Test A pre-/postemergence herbicide test; type: in vivo, Digitaria sanguinalis; conditions: for Plant response rating, Crabgrass, Large: Postemergence; for Crabgrass, Large plant response rating: Preemergence
Procedure, shortened: as §5

velvetleaf [8] = experiment: Test B pre-/postemergence herbicide test; type: in vivo, Abutilon theophrasti
Procedure, shortened: as §2

morningglory [9] = experiment: Test A pre-/postemergence herbicide test; type: in vivo, Ipomoea spp.; conditions: for Plant response rating, Morningglory: Postemergence; for Morningglory plant response rating: Preemergence
Procedure, shortened: as §5

giant foxtail [10] = experiment: Test A pre-/postemergence herbicide test; type: in vivo, Setaria faberi; conditions: for Plant response rating, Foxtail, Giant: Postemergence; for Foxtail, Giant plant response rating: Preemergence
Procedure, shortened: as §5

barnyardgrass [11] = experiment: Test B pre-/postemergence herbicide test; type: in vivo, Echinochloa crus-galli
Procedure, shortened: as §4

wheat = experiment: Test B postemergence herbicide test; type: in vivo, Triticum aestivum; design: key to Wheat plant response rating: 0 = no effect, 100 = complete control; conditions: scale 0 (no effect) to 100 (complete control); for Plant response rating, Wheat: Postemergence, 500 g ai/ha, visual rating after 13 to 15 days
Procedure, shortened: as §3

velvetleaf [12] = experiment: Test A pre-/postemergence herbicide test; type: in vivo, Abutilon theophrasti; conditions: for Plant response rating, Velvetleaf: Postemergence; for Velvetleaf plant response rating: Preemergence
Procedure, shortened: as §5

ducksalad = experiment: Test B flooded paddy test; type: in vivo, Heteranthera limosa; conditions: 1000 g ai/ha, visual rating, scale 0 to 100 (0 no effect, 100 complete control), 13 to 15 days
Procedure, shortened: as §1

[13] = Postemergence, 500 g ai/ha, visual rating after 13 to 15 days, scale 0 (no effect) to 100 (complete control)
[14] = Preemergence, 500 g ai/ha, scale 0 to 100
[15] = preemergence, 125 g ai/ha, 0 to 100 scale, 0 is no effect, 100 is complete control
[16] = Postemergence, 125 g ai/ha, scale 0 (no effect) to 100 (complete control)
[17] = 500 g ai/ha, 0 to 100 scale, 0 no effect, 100 complete control
[18] = 2000 g ai/ha, 0 to 100 scale, 0 no effect, 100 complete control
[19] = 500 g ai/ha, visual rating, 0 to 100 scale (0 no effect, 100 complete control)
[20] = postemergence, 125 g ai/ha, visual rating, scale 0 (no effect) to 100 (complete control)

CCCCn1nc(C(C)(C)C)cc1C(=O)Nc1cccc(C(=O)N(CC)CC)c1 [Compound 40]
0: Barnyardgrass plant response rating (barnyardgrass [1]) | Plant response rating, Surinam Grass (Surinam grass; [15]) | Oat, Wild plant response rating (wild oat; Postemergence) | Rice plant response rating (rice) | Foxtail, Giant plant response rating (giant foxtail [3]; [16]) | Plant response rating, Foxtail, Giant (giant foxtail [3]; [15]) | Corn plant response rating (corn) | Plant response rating, Pigweed (redroot pigweed; [17]) | Plant response rating, Pigweed (redroot pigweed; [18]) | Pigweed plant response rating (redroot pigweed; [19]) | Cocklebur plant response rating (cocklebur; [14]) | Plant response rating, Barnyardgrass (barnyardgrass [6]; [17]) | Plant response rating, Barnyardgrass (barnyardgrass [6]; [18]) | Barnyardgrass plant response rating (barnyardgrass [6]; [19]) | Plant response rating, Crabgrass, Large (large crabgrass [7]; [18]) | Plant response rating, Velvetleaf (velvetleaf [8]; [15]) | Plant response rating, Morningglory (morningglory [9]; [17]) | Plant response rating, Morningglory (morningglory [9]; [18]) | Plant response rating, Foxtail, Giant (giant foxtail [10]; [17]) | Plant response rating, Foxtail, Giant (giant foxtail [10]; [18]) | Foxtail, Giant plant response rating (giant foxtail [10]; [19]) | Plant response rating, Velvetleaf (velvetleaf [12]; [17]) | Plant response rating, Velvetleaf (velvetleaf [12]; [18]) | Ducksalad plant response rating (ducksalad)
40: Lambsquarters plant response rating (lambsquarters; [16]) | Plant response rating, Lambsquarters (lambsquarters; [15]) | Barnyardgrass plant response rating (barnyardgrass [11]; [14])
30: Plant response rating, Pigweed (pigweed; [15]) | Sedge, Umbrella plant response rating [5] | Plant response rating, Wheat (wheat)
10: Surinam Grass plant response rating (Surinam grass; [14]) | Plant response rating, Oat, Wild (wild oat; Postemergence) | Crabgrass, Large plant response rating (large crabgrass [2]; [16]) | Foxtail, Giant plant response rating (giant foxtail [3]; [14]) | Morningglory plant response rating (morningglory [4]; [14]) | Blackgrass plant response rating (blackgrass; Postemergence) | Cocklebur plant response rating (cocklebur; [16]) | Velvetleaf plant response rating (velvetleaf [8]; [14]) | Morningglory plant response rating (morningglory [9]; [18]) | Barnyardgrass plant response rating (barnyardgrass [11]; [16]) | Plant response rating, Barnyardgrass (barnyardgrass [11]; [13])
60: Plant response rating, Pigweed (pigweed; [13]) | Pigweed plant response rating (pigweed; [14])
15: Pigweed plant response rating (redroot pigweed; [18]) | Barnyardgrass plant response rating (barnyardgrass [6]; [18]) | Plant response rating, Crabgrass, Large (large crabgrass [7]; [17]) | Crabgrass, Large plant response rating (large crabgrass [7]; [18]) | Velvetleaf plant response rating (velvetleaf [12]; [18])
80: Lambsquarters plant response rating (lambsquarters; [14])
20: Plant response rating, Surinam Grass (Surinam grass; [13]) | Plant response rating, Crabgrass, Large (large crabgrass [2]; [13]) | Plant response rating, Foxtail, Giant (giant foxtail [3]; [13]) | Plant response rating, Blackgrass (blackgrass; Postemergence) | Plant response rating, Velvetleaf (velvetleaf [8]; [13])
5: Crabgrass, Large plant response rating (large crabgrass [7]; [19]) | Morningglory plant response rating (morningglory [9]; [19]) | Foxtail, Giant plant response rating (giant foxtail [10]; [18]) | Velvetleaf plant response rating (velvetleaf [12]; [19])
70: Plant response rating, Lambsquarters (lambsquarters; [13]) | Crabgrass, Large plant response rating (large crabgrass [2]; [14])
50: Plant response rating, Cocklebur (cocklebur; [13])

C=Cn1nc(C(C)(C)C)cc1C(=O)Nc1cccc(C(=O)OCC)c1 [Compound 78]
85: Plant response rating, Pigweed (redroot pigweed; [17])
50: Plant response rating, Velvetleaf (velvetleaf [12]; [18]) | Velvetleaf plant response rating (velvetleaf [12]; 2000 g ai/ha, visual rating, 0 to 100 scale (0 no effect, 100 complete control))
80: Plant response rating, Lambsquarters (lambsquarters; [13]) | Pigweed plant response rating (pigweed; [20]) | Sedge, Umbrella plant response rating [5] | Pigweed plant response rating (redroot pigweed; [19]) | Cocklebur plant response rating (cocklebur; [20]) | Plant response rating, Velvetleaf (velvetleaf [8]; [13])
40: Rice plant response rating (rice) | Plant response rating, Barnyardgrass (barnyardgrass [6]; [18]) | Morningglory plant response rating (morningglory [9]; [18])
15: Plant response rating, Morningglory (morningglory [9]; [17])
10: Oat, Wild plant response rating (wild oat; postemergence, visual rating) | Crabgrass, Large plant response rating (large crabgrass [2]; [14]) | Plant response rating, Foxtail, Giant (giant foxtail [3]; [15]) | Plant response rating, Velvetleaf (velvetleaf [8]; [15])
30: Barnyardgrass plant response rating (barnyardgrass [1]) | Plant response rating, Crabgrass, Large (large crabgrass [2]; [13]) | Plant response rating, Foxtail, Giant (giant foxtail [3]; [13]) | Foxtail, Giant plant response rating (giant foxtail [3]; [14]) | Foxtail, Giant plant response rating (giant foxtail [3]; [20]) | Plant response rating, Blackgrass (blackgrass; Postemergence) | Plant response rating, Barnyardgrass (barnyardgrass [6]; [17]) | Plant response rating, Barnyardgrass (barnyardgrass [11]; [13]) | Barnyardgrass plant response rating (barnyardgrass [11]; [20]) | Plant response rating, Wheat (wheat) | Wheat plant response rating (wheat; postemergence, 125 g ai/ha, visual rating) | Velvetleaf plant response rating (velvetleaf [12]; [19]) | Ducksalad plant response rating (ducksalad)
100: Plant response rating, Cocklebur (cocklebur; [13])
25: Plant response rating, Morningglory (morningglory [9]; [18]) | Morningglory plant response rating (morningglory [9]; [19])
70: Lambsquarters plant response rating (lambsquarters; [20]) | Velvetleaf plant response rating (velvetleaf [8]; [20]) | Foxtail, Giant plant response rating (giant foxtail [10]; [18])
35: Plant response rating, Crabgrass, Large (large crabgrass [7]; [18])
90: Plant response rating, Pigweed (pigweed; [13]) | Plant response rating, Pigweed (redroot pigweed; [18]) | Pigweed plant response rating (redroot pigweed; [18]) | Crabgrass, Large plant response rating (large crabgrass [7]; [18])
45: Barnyardgrass plant response rating (barnyardgrass [6]; [18])
0: Plant response rating, Surinam Grass (Surinam grass; [15]) | Plant response rating, Lambsquarters (lambsquarters; [15]) | Plant response rating, Crabgrass, Large (large crabgrass [2]; [15]) | Plant response rating, Morningglory (morningglory [4]; [15]) | Corn plant response rating (corn) | Plant response rating, Corn (corn; [15]) | Plant response rating, Pigweed (pigweed; [15]) | Cocklebur plant response rating (cocklebur; [14]) | Plant response rating, Cocklebur (cocklebur; [15]) | Barnyardgrass plant response rating (barnyardgrass [11]; [14]) | Plant response rating, Barnyardgrass (barnyardgrass [11]; [15])
20: Plant response rating, Surinam Grass (Surinam grass; [13]) | Surinam Grass plant response rating (Surinam grass; [20]) | Plant response rating, Oat, Wild (wild oat; Postemergence) | Crabgrass, Large plant response rating (large crabgrass [2]; [20]) | Blackgrass plant response rating (blackgrass; postemergence, visual rating) | Barnyardgrass plant response rating (barnyardgrass [6]; [19]) | Plant response rating, Crabgrass, Large (large crabgrass [7]; [17]) | Plant response rating, Foxtail, Giant (giant foxtail [10]; [17])
60: Crabgrass, Large plant response rating (large crabgrass [7]; [19]) | Plant response rating, Foxtail, Giant (giant foxtail [10]; [18])
55: Foxtail, Giant plant response rating (giant foxtail [10]; [19])
